Data on 13 compounds can be found in patent US12673944B2, “Compounds having inhibitory activity against glucosylceramide synthase or pharmaceutically acceptable salt thereof, processes for preparing the same, and pharmaceutical compositions comprising the same” (YUHAN CORPORATION, priority 2019, dated 2026).

The subject of test [1] is GM1 production in Jurkat cells. Kind of test: cells. Conditions: Homo sapiens, Jurkat, 72 h. The test is classed as cell-based.
Test [2] has as its target T1, glucosylceramide synthase (GCS) (Homo sapiens, UniProt Q16739).
T1 construct: The obtained supernatant was used; host or cells: A549 cells (lysate supernatant after sonication)
T1 sequence (Q16739 1-394): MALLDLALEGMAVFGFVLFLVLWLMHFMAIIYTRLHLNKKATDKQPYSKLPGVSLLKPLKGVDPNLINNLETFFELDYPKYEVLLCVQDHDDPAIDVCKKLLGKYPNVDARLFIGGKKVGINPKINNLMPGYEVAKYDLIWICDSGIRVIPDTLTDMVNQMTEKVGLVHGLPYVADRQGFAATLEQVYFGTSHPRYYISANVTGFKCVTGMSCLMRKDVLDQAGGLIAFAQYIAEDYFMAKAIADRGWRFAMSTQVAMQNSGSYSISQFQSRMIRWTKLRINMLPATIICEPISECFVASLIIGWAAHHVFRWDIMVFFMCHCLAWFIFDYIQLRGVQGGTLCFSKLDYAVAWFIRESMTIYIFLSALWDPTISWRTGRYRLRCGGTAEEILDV
Kind of test: GCS enzyme inhibition assay (A549 cell lysate, NBD C6-ceramide, HPLC fluorescence). It is filed as biochemical. Particulars: inhibitory activity against GCS, 37° C., 90 minutes. Summed up: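 Percent GCS activity was derived from the GlcCer share of Cer plus GlcCer areas, scaled from ibiglustat (0%) to DMSO (100%). Enzyme came from sonicated A549 lysate in 50 mM HEPES pH 7.3; 90 min incubation at 37° C, chloroform/methanol stop and extraction.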

As usually defined, the IC50 is the concentration that inhibits the measured activity by half. Low values mean higher potency, high ones lower potency. As for `CC1(C)COc2cc(-c3ccc4nonc4c3)ccc2C1NC(=O)O[C@@H]1CN2CCC1CC2` (stereo partly drawn) [Example 220, (S)-quinuclidin-3-yl (7-(benzo[c][1,2,5]oxadiazol-5-yl)-3,3-dimethylchroman-4-yl)carbamate], the concentration for half-maximal inhibition (IC50) in test [1] was 2.42 nM; in test [2] it was 0.8 nM.

Take `Cc1cncc(-c2ccc3c(c2)OCC(C)(C)C3NC(=O)O[C@@H]2CN3CCC2CC3)c1` (stereo partly drawn) [Example 221, (S)-quinuclidin-3-yl (3,3-dimethyl-7-(5-methylpyridin-3-yl)chroman-4-yl)carbamate]: the IC50 in test [1] was 2.8 nM; in test [2], 0.74 nM.

Consider `CC1(C)COc2cc(-c3cccnc3F)ccc2C1NC(=O)O[C@@H]1CN2CCC1CC2` (stereo partly drawn) [Example 222, (S)-quinuclidin-3-yl (7-(2-fluoropyridin-3-yl)-3,3-dimethylchroman-4-yl)carbamate], for which the figures for the IC50 in test [1] and in test [2] were 6.59 nM and 0.79 nM, respectively.

As to `Cc1ccc(-c2ccc3c(c2)OCC(C)(C)C3NC(=O)O[C@@H]2CN3CCC2CC3)c(Cl)c1` (stereo partly drawn) [Example 223, (S)-quinuclidin-3-yl (7-(2-chloro-4-methylphenyl)-3,3-dimethylchroman-4-yl)carbamate], the 50% inhibitory concentration (IC50) worked out at 1.6 nM in test [1] and 1.58 nM in test [2].

For `Cc1ccc(Cl)c(-c2ccc3c(c2)OCC(C)(C)C3NC(=O)O[C@@H]2CN3CCC2CC3)c1` (stereo partly drawn) [Example 224, (S)-quinuclidin-3-yl (7-(2-chloro-5-methylphenyl)-3,3-dimethylchroman-4-yl)carbamate], the IC50 in test [1] was determined as 0.6 nM; in test [2], 0.62 nM.

Regarding `Cc1ccc(-c2ccc3c(c2)OCC(C)(C)C3NC(=O)O[C@@H]2CN3CCC2CC3)c(F)c1` (stereo partly drawn) [Example 225, (S)-quinuclidin-3-yl (7-(2-fluoro-4-methylphenyl)-3,3-dimethylchroman-4-yl)carbamate], the IC50 in test [1] stood at 1.7 nM; in test [2] it was 0.45 nM.

In the case of `Cc1ccc(-c2ccc3c(c2)OCC(C)(C)C3NC(=O)O[C@@H]2CN3CCC2CC3)cc1Cl` (stereo partly drawn) [Example 226, (S)-quinuclidin-3-yl (7-(3-chloro-4-methylphenyl)-3,3-dimethylchroman-4-yl)carbamate], the IC50 in test [1] stood at 1.3 nM; in test [2], 0.71 nM.

Turning to `Cc1cc(F)ccc1-c1ccc2c(c1)OCC(C)(C)C2NC(=O)O[C@@H]1CN2CCC1CC2` (stereo partly drawn) [Example 227, (S)-quinuclidin-3-yl (7-(4-fluoro-2-methylphenyl)-3,3-dimethylchroman-4-yl)carbamate], the IC50 in test [1] is 4.5 nM; in test [2], 0.56 nM.

As for `Cc1ccc(-c2ccc3c(c2)OCC(C)(C)C3NC(=O)O[C@@H]2CN3CCC2CC3)cc1F` (stereo partly drawn) [Example 228, (S)-quinuclidin-3-yl (7-(3-fluoro-4-methylphenyl)-3,3-dimethylchroman-4-yl)carbamate], the IC50 in test [1] stood at 1.3 nM; in test [2], 0.55 nM.

On to `Cc1cc(-c2ccc3c(c2)OCC(C)(C)C3NC(=O)O[C@@H]2CN3CCC2CC3)ccc1F` (stereo partly drawn) [Example 229, (S)-quinuclidin-3-yl (7-(4-fluoro-3-methylphenyl)-3,3-dimethylchroman-4-yl)carbamate], for which the IC50 in test [1] stood at 2.1 nM; in test [2] it was 0.71 nM.

As for `CC1(C)COc2cc(-c3ccc(Cl)cc3Cl)ccc2C1NC(=O)O[C@@H]1CN2CCC1CC2` (stereo partly drawn) [Example 230, (S)-quinuclidin-3-yl (7-(2,4-dichlorophenyl)-3,3-dimethylchroman-4-yl)carbamate], the IC50 in test [1] is 0.8 nM; in test [2], 0.86 nM.

On to `CC1(C)COc2cc(-c3ccc(F)cc3Cl)ccc2C1NC(=O)O[C@@H]1CN2CCC1CC2` (stereo partly drawn) [Example 231, (S)-quinuclidin-3-yl (7-(2-chloro-4-fluorophenyl)-3,3-dimethylchroman-4-yl)carbamate], for which the values for the 50% inhibitory concentration (IC50) in test [1] and in test [2] were 1.5 nM and 0.62 nM, respectively.

`CC1(C)COc2cc(-c3cc(F)ccc3Cl)ccc2C1NC(=O)O[C@@H]1CN2CCC1CC2` (stereo partly drawn) [Example 232, (S)-quinuclidin-3-yl (7-(2-chloro-5-fluorophenyl)-3,3-dimethylchroman-4-yl)carbamate]: the 50% inhibitory concentration (IC50) was 0.3 nM in test [1] and 0.41 nM in test [2].
